Data: patent US20130236898A1, “Anaplasma FAMILY MEMBERS CAUSE A NUMBER OF BLOOD-BORNE DISEASES” (priority 2012, published 2013)

Assays:
[1] = test system: HGA agent; conditions: reported by Klein et al., Antimicrob. Agents and Chemother. 1997; cited from earlier work
[2] = test system: acute lymphocytic leukemia (ALL); test: Rifampin treatment of Patient two, end stage marrow failure; assay type: in vivo, human; conditions: person, ALL recurrence after marrow transplant, no other treatment given
Description: No other treatment was available or given. After 2 months of rapid improvement, during which they regained the ability to walk and was discharged from the hospital, they succumbed to an acute apparently unrecognized cytomegalovirus infection.

[3] = test system: intracellular organisms in the genus of Ehrlich/Anaplasma; conditions: cited from earlier work
[4] = test system: acute myelogenous leukemia (AML); test: Rifampin treatment of Patient one; assay type: in vivo, human
Procedure: This was a child with acute myelogenous leukemia (AML), who had blood counts of less than 2000 platelets and less than 300 white cells, persisting for 3 months. They were treated with Rifampin and on day 11 […] white cell count increased to 21,000, with 75% blasts.

| Molecule | activity against the HGA agent [1] | also measured |
| --- | --- | --- |
| CC1(C)S[C@@H]2[C@H](NC(=O)[C@H](N)c3ccccc3)C(=O)N2[C@H]1C(=O)O [ampicillin] | resistant |  |
| CC[C@H]1OC(=O)[C@H](C)[C@@H](O[C@H]2C[C@@](C)(OC)[C@@H](O)[C@H](C)O2)[C@H](C)[C@@H](O[C@@H]2O[C@H](C)C[C@H](N(C)C)[C@H]2O)[C@](C)(O)C[C@@H](C)CN(C)[C@H](C)[C@@H](O)[C@]1(C)O [azrithromycin] | resistant |  |
| CO/N=C(\C(=O)N[C@@H]1C(=O)N2C(C(=O)O)=C(CSc3nc(=O)c(O)nn3C)CS[C@H]12)c1csc(N)n1 [cefatriaxone] | resistant |  |
| O=C(N[C@H](CO)[C@H](O)c1ccc([N+](=O)[O-])cc1)C(Cl)Cl [chloramphenicol] | weakly active, but not bactericidal |  |
| O=C(O)c1cn(C2CC2)c2cc(N3CCNCC3)c(F)cc2c1=O [ciprofloxacin] | most active, and bactericidal |  |
| C[C@H]1c2cccc(O)c2C(=O)C2=C(O)[C@]3(O)C(=O)C(C(N)=O)=C(O)[C@@H](N(C)C)[C@@H]3[C@@H](O)[C@@H]21 [doxycycline] | most active, and bactericidal |  |
| CC[C@H]1OC(=O)[C@H](C)[C@@H](O[C@H]2C[C@@](C)(OC)[C@@H](O)[C@H](C)O2)[C@H](C)[C@@H](O[C@@H]2O[C@H](C)C[C@H](N(C)C)[C@H]2O)[C@](C)(O)C[C@@H](C)C(=O)[C@H](C)[C@@H](O)[C@]1(C)O [erythromycin] | resistant |  |
| CO[C@H]1/C=C/O[C@@]2(C)Oc3c(C)c(O)c4c(c3C2=O)C2=NC3(CCN(CC(C)C)CC3)NC2=C(NC(=O)/C(C)=C\C=C\[C@H](C)[C@H](O)[C@@H](C)[C@@H](O)[C@@H](C)[C@H](OC(C)=O)[C@@H]1C)C4=O [rifabutin] | most active, and bactericidal |  |
| N[C@@H]1[C@H]2CN(c3nc4c(cc3F)c(=O)c(C(=O)O)cn4-c3ccc(F)cc3F)C[C@@H]12 [trovafloxacin] | most active, and bactericidal |  |
| Gentamicin | weakly active, but not bactericidal |  |
| Rifampicin [Rifampin] | most active, and bactericidal | clinical outcome [2]: remarkable though temporary recovery; effectiveness against intracellular organisms of genus Ehrlich/Anaplasma [3]: particularly effective; platelets ([4]; after treatment, less than 2000 platelets before): increased less rapidly; blasts ([4]; day 11 of treatment, share of white cell count): 75%; white cell count ([4]; day 11 of treatment, child, less than 300 white cells for 3 months before): 21,000 |
| imipenem-cilastatin | resistant |  |
| thrmethoprim-sulfamethoxazolem | resistant |  |
